Laboratory results published in PMC4875834 (The Biochemical journal, 2016).

Target: T1, DC-SIGN (Homo sapiens, UniProt Q9NNX6)
T1 sequence (Q9NNX6 62-404): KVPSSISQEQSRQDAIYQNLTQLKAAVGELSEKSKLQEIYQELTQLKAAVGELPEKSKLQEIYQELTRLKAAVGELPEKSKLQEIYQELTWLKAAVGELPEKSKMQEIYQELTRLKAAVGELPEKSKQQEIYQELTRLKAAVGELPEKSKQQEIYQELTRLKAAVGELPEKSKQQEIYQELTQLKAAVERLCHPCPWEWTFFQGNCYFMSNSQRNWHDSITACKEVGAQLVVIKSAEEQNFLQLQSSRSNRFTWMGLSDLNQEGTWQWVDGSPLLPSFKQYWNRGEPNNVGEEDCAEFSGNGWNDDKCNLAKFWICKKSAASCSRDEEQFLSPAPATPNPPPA
Assay: free-glycan inhibition of DC-SIGN binding to HMG microarrays

- IC50: ~1000 µM
Structure (SMILES): C[C@@H]1O[C@@H](O[C@H]2[C@H](O[C@H]3[C@H](O)[C@@H](O)C(O)O[C@@H]3CO)O[C@H](CO)[C@H](O)[C@@H]2O)[C@@H](O)[C@H](O)[C@@H]1O (stereo partly shown) [2′-FL, 2′-fucosyllactose]
